Tests used:
Type in all cases: in vivo
Matricaria inodora = experiment: Pre-emergence herbicidal efficacy, MATIN
How it was run: (§1)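 Visual percent activity relative to untreated plants (0% = like control, 100% = dead), scored about 3 weeks after treatment under greenhouse conditions.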

Stellaria media = experiment: Pre-emergence herbicidal efficacy, STEME
How it was run: as §1

Viola tricolor [1] = experiment: Pre-emergence herbicidal efficacy, VIOTR
How it was run: as §1

Viola tricolor [2] = experiment: Post-emergence herbicidal efficacy, VIOTR
Description: (§2) ABUTH: Abutilon theophrasti ALOMY: Alopecurus myosuroides AMARE: Amaranthus retroflexus AVEFA: Avena fatua CYPES: Cyperus esculentus ECHCG: Echinochloa crus-galli LOLMU: Lolium multiflorum MATIN: Matricaria inodora PHBPU: Ipomoea purpurea POLCO: Polygonum convolvulus SETVI: Setaria viridis STEME: Stellaria media VERPE: Veronica persica VTOTR: Viola tricolor
(§3) C.2 Post-Emergence Herbicidal Action and Crop Plant Compatibility
(§4) Seeds of monocotyledonous and dicotyledonous weeds and crop plants are placed in sandy loam in plastic or organic planting pots, covered with soil and cultivated in a greenhouse under controlled growth conditions. 2 to 3 weeks after sowing, the test plants are treated at the one-leaf stage. The compounds of the invention, formulated in the form of wettable powders (WP) or as emulsion concentrates (EC), are then sprayed onto the green parts of the plants as aqueous suspension or emulsion with addition of 0.5% additive at a water application rate of […] (converted). After the test plants had been kept in the greenhouse under optimum growth conditions for about 3 weeks, the activity of the preparations is rated visually in comparison to untreated controls. For example, 100% activity=the plants have died, 0% activity=like control plants.

Veronica persica [3] = experiment: Post-emergence herbicidal efficacy, VERPE
Description: as §2, §3, §4

Echinochloa crus-galli = experiment: Pre-emergence herbicidal efficacy, ECHCG; details: Table B1, application rate 320 g/ha, scored visually after about 3 weeks vs untreated controls
Description: (§5) C.1 Pre-Emergence Herbicidal Action and Crop Plant Compatibility
(§6) Seeds of monocotyledonous and dicotyledonous weed plants and crop plants are placed in plastic or organic planting pots and covered with soil. The compounds of the invention, formulated in the form of wettable powders (WP) or as emulsion concentrates (EC), are then applied onto the surface of the covering soil as aqueous suspension or emulsion with addition of 0.5% additive at a water application rate of […] (converted). After the treatment, the pots are placed in a greenhouse and kept under good growth conditions for the trial plants. After about 3 weeks, the effect of the preparations is scored visually in comparison with untreated controls as percentages. For example, 100% activity=the plants have died, 0% activity=like control plants.
as §2

Lolium rigidum = experiment: Pre-emergence herbicidal efficacy, LOLRI; details: Table B1, application rate 320 g/ha, scored visually after about 3 weeks vs untreated controls
Description: C.1 Pre-Emergence Herbicidal Action and Crop Plant Compatibility Seeds of monocotyledonous and dicotyledonous weed plants and crop plants are placed in plastic or organic planting pots and covered with soil. The compounds of the invention, formulated in the form of wettable powders (WP) or as emulsion concentrates (EC), are then applied onto the surface of the covering soil as aqueous suspension or emulsion with addition of 0.5% additive at a water application rate of […] (converted). After the treatment, the pots are placed in a greenhouse and kept under good growth conditions for the trial plants. After about 3 weeks, the effect of the preparations is scored visually in comparison with untreated controls as percentages. For example, 100% activity=the plants have died, 0% activity=like control plants. […] Here, for example, compound Nos. I-214 and I-196, when applied pre-emergence, have very good activity (80% to 100% herbicidal activity) against harmful plants such as Abutilon theophrasti, Amaranthus retroflexus, Echinochloa crus-galli, Lolium rigidum, Matricaria inodora, Polygonum convolvulus, Setaria viridis, Stellaria media, Veronica persica and Viola tricolor at an application rate of 0.32 kg of active substance or less per hectare. At the same time, some of the compounds according to the invention leave Gramineae crops such as barley, wheat, rye, millet/sorghum, corn, rice or sugar cane virtually undamaged when applied pre-emergence, even at high active compound dosages. In addition, some substances are also harmless to dicotyledonous crops such as soya, cotton, oilseed rape or sugar beet.

Setaria viridis = experiment: Pre-emergence herbicidal efficacy, SETVI; details: Table B1, application rate 320 g/ha, scored visually after about 3 weeks vs untreated controls
Description: as §5, §6, §2

Abutilon theophrasti = experiment: Pre-emergence herbicidal efficacy, ABUTH; details: Table B1, application rate 320 g/ha, scored visually after about 3 weeks vs untreated controls
Description: as §5, §6, §2

Amaranthus retroflexus = experiment: Pre-emergence herbicidal efficacy, AMARE; details: scored visually after about 3 weeks vs untreated controls
How it was run: as §1

Polygonum convolvulus = experiment: Pre-emergence herbicidal efficacy, POLCO; details: scored visually after about 3 weeks vs untreated controls
How it was run: as §1

Veronica persica [4] = experiment: Pre-emergence herbicidal efficacy, VERPE; details: scored visually after about 3 weeks vs untreated controls
How it was run: as §1

[5] = application rate 320 g/ha, scored visually after about 3 weeks
[6] = application rate 320 g/ha, rated visually after about 3 weeks (Table B7)
[7] = Table B1, application rate 320 g/ha
[8] = Table B1, application rate 320 g/ha, scored visually after about 3 weeks vs untreated controls
[9] = application rate 1280 g/ha, rated visually after about 3 weeks
[10] = Table B2, application rate 320 g/ha
[11] = Table B2, application rate 320 g/ha, scored visually after about 3 weeks vs untreated controls

| Compound | Herbicidal efficacy against MATIN (Matricaria inodora; [5]) [%] | Herbicidal efficacy against STEME (Stellaria media; [5]) [%] | Herbicidal efficacy against VIOTR (Viola tricolor [1]; [5]) [%] | Herbicidal efficacy against VIOTR (Viola tricolor [2]; [6]) [%] | Herbicidal efficacy against VERPE (Veronica persica [3]; [6]) [%] | Herbicidal efficacy against VIOTR (Viola tricolor [2]; [9]) [%] | Herbicidal efficacy against VERPE (Veronica persica [3]; [9]) [%] | other results |
| --- | --- | --- | --- | --- | --- | --- | --- | --- |
| Cc1ccc2c(c1)C(Nc1nc3n(n1)CCN(C(=O)c1cccc(Cl)c1)C3)C(C)C2 (stereo not drawn) [Example I-170] | 90 | 100 | 100 | 80 | 90 |  |  |  |
| Fc1cccc2c1CCC[C@H]2Nc1nc2n(n1)CCCCS2 [Example I-213] |  |  |  | 90 | 90 |  |  | Herbicidal efficacy against ECHCG (Echinochloa crus-galli): 100%; Herbicidal efficacy against LOLRI (Lolium rigidum): 100%; Herbicidal efficacy against SETVI (Setaria viridis): 100%; Herbicidal efficacy against ABUTH (Abutilon theophrasti): 100%; Herbicidal efficacy against AMARE (Amaranthus retroflexus; [7]): 100%; Herbicidal efficacy against MATIN (Matricaria inodora; [8]): 100%; Herbicidal efficacy against POLCO (Polygonum convolvulus; [7]): 100%; Herbicidal efficacy against STEME (Stellaria media; [8]): 100%; Herbicidal efficacy against VIOTR (Viola tricolor [1]; [8]): 100%; Herbicidal efficacy against VERPE (Veronica persica [4]; [7]): 100% |
| [O-][S+]1CCCCn2nc(NC3CCOc4ccccc43)nc21 (stereo not drawn) [Example I-247] | 100 | 100 | 100 |  |  | 80 | 80 |  |
| O=S(=O)(C1CC1)N1CCn2nc(NC3CCCc4ccccc43)nc2C1 (stereo not drawn) [Example I-087] | 100 | 100 | 100 | 80 | 80 | 80 | 90 |  |
| Cc1ccc2c(c1)[C@H](Nc1nc3n(n1)CCN(S(=O)(=O)Cc1ccccc1)C3)CCC2 [Example I-202] | 90 | 100 | 100 | 80 | 80 |  |  |  |
| Cc1ccc2c(c1)C(Nc1nc3n(n1)CCCCS3(=O)=O)CCC2 (stereo not drawn) [Example I-234] |  |  |  | 90 | 80 |  |  | Herbicidal efficacy against ECHCG (Echinochloa crus-galli): 100%; Herbicidal efficacy against LOLRI (Lolium rigidum): 100%; Herbicidal efficacy against SETVI (Setaria viridis): 100%; Herbicidal efficacy against ABUTH (Abutilon theophrasti): 100%; Herbicidal efficacy against AMARE (Amaranthus retroflexus; [7]): 100%; Herbicidal efficacy against MATIN (Matricaria inodora; [8]): 100%; Herbicidal efficacy against POLCO (Polygonum convolvulus; [7]): 100%; Herbicidal efficacy against STEME (Stellaria media; [8]): 100%; Herbicidal efficacy against VIOTR (Viola tricolor [1]; [8]): 100%; Herbicidal efficacy against VERPE (Veronica persica [4]; [7]): 100% |
| Cc1ccc2c(c1)[C@H](Nc1nc3n(n1)CCN(S(=O)(=O)Cc1ccccc1)C3)[C@@H](C)C2 [Example I-194] | 90 | 100 | 100 | 80 | 100 |  |  |  |
| CC(=O)N1CCn2nc(NC3CCOc4ccccc43)nc2C1 (stereo not drawn) [Example I-068] | 100 | 100 | 100 |  |  | 80 | 90 |  |
| O=C1CCn2nc(NC3CCOc4ccccc43)nc2N1Cc1cccc(C(F)(F)F)c1 (stereo not drawn) [Example I-273] | 80 | 100 | 100 |  |  | 90 | 100 |  |
| O=C1CCn2nc(NC3CCc4ccccc43)nc2N1CC1CC1 (stereo not drawn) [Example I-219] | 100 | 100 | 100 |  |  | 80 | 90 |  |
| Cc1ccc2c(c1)C(Nc1nc3n(n1)CCCN3S(=O)(=O)C1CC1)CCC2 (stereo not drawn) [Example I-327] | 100 | 100 | 100 | 80 | 90 |  |  | Herbicidal efficacy against AMARE (Amaranthus retroflexus; [10]): 100%; Herbicidal efficacy against MATIN (Matricaria inodora; [11]): 100%; Herbicidal efficacy against STEME (Stellaria media; [11]): 100%; Herbicidal efficacy against VIOTR (Viola tricolor [1]; [11]): 100%; Herbicidal efficacy against VERPE (Veronica persica [4]; [10]): 100% |
| Cc1ccc2c(c1)[C@H](Nc1nc3n(n1)CCN(S(=O)(=O)C1CC1)C3)[C@@H](C)C2 [Example I-192] |  |  |  | 80 | 80 |  |  | Herbicidal efficacy against AMARE (Amaranthus retroflexus; [10]): 100%; Herbicidal efficacy against MATIN (Matricaria inodora; [11]): 100%; Herbicidal efficacy against POLCO (Polygonum convolvulus; [10]): 100%; Herbicidal efficacy against STEME (Stellaria media; [11]): 100%; Herbicidal efficacy against VIOTR (Viola tricolor [1]; [11]): 100%; Herbicidal efficacy against VERPE (Veronica persica [4]; [10]): 100% |
| Cc1ccc2c(c1)[C@H](Nc1nc3n(n1)CCN(S(=O)(=O)c1ccccc1Cl)C3)[C@@H](C)C2 [Example I-195] | 90 | 100 | 100 | 80 | 80 | 90 | 90 |  |
| [O-][S+]1CCCCn2nc(NC3CCCc4ccccc43)nc21 (stereo not drawn) [Example I-249] |  |  |  |  |  | 80 | 80 | Herbicidal efficacy against ECHCG (Echinochloa crus-galli): 100%; Herbicidal efficacy against SETVI (Setaria viridis): 100%; Herbicidal efficacy against ABUTH (Abutilon theophrasti): 100%; Herbicidal efficacy against AMARE (Amaranthus retroflexus; [7]): 100%; Herbicidal efficacy against MATIN (Matricaria inodora; [8]): 100%; Herbicidal efficacy against POLCO (Polygonum convolvulus; [7]): 100%; Herbicidal efficacy against STEME (Stellaria media; [8]): 100%; Herbicidal efficacy against VIOTR (Viola tricolor [1]; [8]): 100%; Herbicidal efficacy against VERPE (Veronica persica [4]; [7]): 100% |

— patent US20200331904A1, “3-AMINO-[1,2,4]-TRIAZOLE DERIVATIVES AND THEIR USE FOR CONTROLLING UNDESIRED PLANT GROWTH” (Bayer CropScience Aktiengesellschaft, priority 2017, published 2020)
